# Assay results from patent publication US20260176283A1, “IONIZABLE LIPIDS WITH LINEAR HEAD GROUPS” (Beam Therapeutics Inc., priority 2023, published 2026).
# Several values for one entry are separate records, joined by “and”; a condition that tells them apart may be missing. Equal entries are not always repeated.
# Experiments:
# [1] = LNP preparation characterization (encapsulation efficiency, DLS size and polydispersity), barcoded screen LNPs; assay type: physicochemical; details: LNP 47.5% ionizable lipid: 40% cholesterol: 2.5% PEG-2000 DMG: 10% DPSC, N/P 4.5-6; for AVG PDI / AVG Z Dia (nm): DLS
# Protocol: Lipid nanoparticle components were dissolved in 100% ethanol at specified lipid component molar ratios. Nucleic acid (NA) cargo was dissolved in 10 mM citrate, 100 mM NaCl, pH 4.0, resulting in a concentration of NA cargo of approximately 0.22 mg/mL. In some embodiments, NA cargos included both a functional NA and a reporter barcode mixed at mass ratios of 1:10 to 10:1 functional NA to barcode. As described herein, a NA can be a siRNA, an anti-sense, an expressing DNA, or mRNA.
# LNP preparations were prepared with 47.5% Ionizable Lipid (e.g., a compound provided herein): 40% cholesterol: 2.5% PEG-2000 DMG: 10% DPSC and an N/P ratio range of 4.5-6. LNP preparations were formed by microfluidic mixing of the lipid and NA solutions using Precision Nanosystems NanoAssemblr Spark or Benchtop series Instruments, according to the manufacturer's protocol.
# A ratio of aqueous to organic solvent of approximately 2:1 or 3:1 was maintained during mixing using differential flow rates. After mixing, LNP preparations were collected, diluted in phosphate buffer saline (PBS) or Tris-buffered saline (TBS) (approximately 1:1 v/v). Further buffer exchange was conducted using dialysis in PBS or TBS at 4° C. for 4 to 24 hours against a 20 kDa filter. After this initial dialysis, each individual LNP preparation may be characterized via dynamic light scattering (DLS) to measure the size (e.g., diameter) and polydispersity. LNP preparations falling within specific diameter and polydispersity ranges were pooled, and further dialyzed against PBS or TBS at 4° C. for 1 to 4 hours against a 100 kDa dialysis cassette. After the second dialysis, LNP preparations were sterile filtered using 0.22 μm filter and stored at 4° C. for further use.
# [2] = LNP characterization of base editor LNP preparations (DLS diameter, PDI, encapsulation efficiency); assay type: physicochemical
# Protocol: (§1) Lipid nanoparticle components are dissolved in 100% ethanol at specified lipid component molar ratios. mRNA encoding an adenine base editor and a chemically-modified sgRNA is dissolved at a mass ratio of 1:1 in 10 mM citrate, 100 mM NaCl, pH 4.0, resulting in a concentration of NA cargo of approximately 0.22 mg/mL. LNP preparations are formulated with molar ratios of either 50% Ionizable Lipid: 38.5% Cholesterol: 1.5% PEG2000-DMG: 10% DSPC or 47.5% Ionizable Lipid: 40% Cholesterol: 2.5% PEG2000-DMG: 10% DSPC both at a total lipid to NA molar ratio of 6.
# (§2) LNP preparations are formed by microfluidic mixing of the lipid and NA solutions using a Precision Nanosystems NanoAssemblr Ignite Instrument, according to the manufacturer's protocol. A 3:1 ratio of aqueous to organic solvent is maintained during mixing using differential flow rates. After mixing, LNP preparations are collected, diluted in PBS (approximately 2:1 v/v), and further buffer exchange is conducted using dialysis in PBS at 4° C. for 8 to 24 hours against a 20 kDa filter. After this initial dialysis, each individual LNP preparation is characterized via dynamic light scattering (DLS) to measure size and polydispersity. pKa of a subpopulation of LNP preparations is measured via TNS assay. After dialysis, LNP preparations are sterile filtered using 0.22 micron sterile filter and stored at 4° C. for further use. In some embodiments, LNP preparations may be concentrated using 100 kDa Amicon filters per manufacturer's protocol.
# DLS—LNP preparation hydrodynamic diameter and polydispersity index (PDI) is measured using high throughput dynamic light scattering (DLS) (DynaPro plate reader II, Wyatt). LNP preparations are diluted 1×PBS to an appropriate concentration and analyzed.
# Concentration of NA is determined by Qubit microRNA kit (for siRNA) or HS RNA kit (for mRNA) per manufacturer's instructions. Encapsulation efficiency is determined by measuring unlysed and lysed LNPs.
# [3] = test system: ALAS1 target site; test: In vivo base editing with ABE mRNA and sgRNA targeting ALAS1; set-up: species or system Balb/c mice; details: for Liver Editing A->G (%): 4 days after dosing
# Protocol: as §1, §2
# (§3) Male Balb/C mice aged approximately 8-12 weeks are used in the experiments described herein. Each mouse is temporarily restrained, and LNP preparations are administered IV via tail vein injection. Age-matched mice are also used to administer vehicle (1×PBS) via tail vein injection as a control. Four to six days post-dose, tissues including liver, spleen, heart and muscle are collected (only liver and muscle (quardracept) are reported). Genomic DNA is isolated and fragmented and adapter-ligated using the Nextera DNA Flex Library Prep Kit (Illumina) using the 96-well plate Nextera indexing primers (Illumina), according to the manufacturer's instructions. Library size and concentration is confirmed by Fragment Analyzer (Agilent) and sent to Novogene for whole genome sequencing using an Illumina HiSeq.
# (§4) For base editing, mRNA encoding an adenine base editor (ABE) and a guide RNA (sgRNA) targeting ALAS1 at 1:1 (mass ratio) are coencapsulated in LNP preparations as described herein. LNP preparations are administrated into Balb/c mice through tail vein injections at concentrations ranging from 0.05 to 3.0 mg/kg total RNA. At 4 days after dosing, mice are euthanized and liver, spleen and bone barrow are harvested. Base editing is determined by performing targeted deep sequencing analysis at the ALAS1 target site using extracted genomic DNA.
# [4] = test system: PCSK9 target site; test: In vivo base editing with ABE mRNA and sgRNA targeting PCSK9; set-up: species or system Balb/c mice; details: dose 0.03 MPK (mg total RNA/kg) IV, formulation ratio 47.5:40:2.5:10, liver, 4 days after dosing
# Protocol: as §1, §2, §3
# as §4, with “PCSK9” for “ALAS1”, “concentration of 0.03 mg” for “concentrations ranging from 0.05 to 3.0 mg/kg”, “RNA/kg. […]” for “RNA. At 4 days after dosing, mice are euthanized and liver, spleen and bone barrow are harvested.”
# [5] = Table C LNPs, formulation ratio 47.5:40:2.5:10, ABE mRNA/ALAS1 sgRNA
# [6] = Table D LNPs, formulation ratio 50:38.5:1.5:10, ABE mRNA/ALAS1 sgRNA
# [7] = dose 0.05 MPK IV, formulation ratio 50:38.5:1.5:10, liver
# [8] = dose 3 MPK IV, formulation ratio 47.5:40:2.5:10, quadricep muscle
# [9] = Table E LNPs, formulation ratio 47.5:40:2.5:10, ABE mRNA/PCSK9 sgRNA
AVG EE(%) [1] [%],AVG PDI [1],AVG Z Dia (nm) [1] [nm],"Diameter (nm) [2, 5]","EE (%) [2, 5]","PDI (%) [2, 5]","Diameter (nm) [2, 6] [nm]","EE (%) [2, 6] [%]","PDI (%) [2, 6] [%]","Diameter (nm) [2, 9] [nm]","EE (%) [2, 9] [%]",SMILES,Liver Editing A->G (%) [4] [%],further results
85.8,0.12,78.47,–,–,–,72.6,98.18,11.4,–,–,"CCC/C=C\CCC(CC/C=C\CCC)OC(=O)CCCCCC(=O)OCC(COC(=O)CCCCCC(=O)OC(CC/C=C\CCC)CC/C=C\CCC)COC(=O)CCCN1CCCC1 [Compound (23), 1-{2-[({7-Oxo-7-[(4Z,11Z)-pentadeca-4,11-dien-8-yloxy]heptanoyl}oxy)methyl]-3-{[4-(pyrrolidin-1-yl)butanoyl]oxy}propyl} 7-(4Z,11Z)-pentadeca-4,11-dien-8-ylheptanedioate]",–,"Liver Editing A->G (%) ([3]; dose 1.5 MPK IV, formulation ratio 50:38.5:1.5:10, liver): 80.09%; Quadrecept Editing A->G (%) ([3]; dose 1.5 MPK IV, formulation ratio 50:38.5:1.5:10, quadricep muscle): 4.81%"
94.4,0.12,–,75.47 nm,99.1%,1.2%,79.55,96.9,–,–,–,"C=CCCCCCC(CCCCCC=C)OC(=O)CCCCCC(=O)OCC(COC(=O)CCCCCC(=O)OC(CCCCCC=C)CCCCCC=C)COC(=O)OCC1CCCN(CC)C1 (stereo not shown) [Compound (25), O1-[2-[(1-ethyl-3-piperidyl)methoxycarbonyloxymethyl]-3-[7-(1-hept-6-enyloct-7-enoxy)-7-oxo-heptanoyl]oxy-propyl] O7-(1-hept-6-enyloct-7-enyl) heptanedioate]",–,"Liver Editing A->G (%) [3, 7]: 0.27%; Quadrecept Editing A->G (%) [3, 8]: 2.93%"
93.4,0.08,82.14,75.47 nm and 81.14 nm,99.1% and 99%,1.2% and 9.4%,79.5,98.3,22.3,–,–,"C=CCCCCCC(CCCCCC=C)OC(=O)CCCCCC(=O)OCC(COC(=O)CCCCCC(=O)OC(CCCCCC=C)CCCCCC=C)COC(=O)NCCN1CCCC1 [Compound (26), O1-[2-[[7-(1-hept-6-enyloct-7-enoxy)-7-oxo-heptanoyl]oxymethyl]-3-(2-pyrrolidin-1-ylethylcarbamoyloxy)propyl] O7-(1-hept-6-enyloct-7-enyl) heptanedioate]",–,"Liver Editing A->G (%) [3, 7]: 0.41%; Quadrecept Editing A->G (%) [3, 8]: 7.26%"
–,–,–,–,–,–,–,–,–,65.7,96.55,"CC/C=C\CCCC(CCC/C=C\CC)OC(=O)CCCCCC(=O)OCC(COC(=O)CCCCCC(=O)OC(CCC/C=C\CC)CCC/C=C\CC)COC(=O)OCCCN(CC)CC [Compound (29), O1-[2-[3-(diethylamino)propoxycarbonyloxymethyl]-3-[7-[(Z)-1-[(Z)-hept-4-enyl]oct-5-enoxy]-7-oxo-heptanoyl]oxy-propyl] O7-[(Z)-1-[(Z)-hept-4-enyl]oct-5-enyl] heptanedioate]",7.53,"PDI (%) [2, 9]: 11.9%"
–,–,–,–,–,–,–,–,–,67.06,97.15,"CC/C=C\CCCC(CCC/C=C\CC)OC(=O)CCCCCC(=O)OCC(COC(=O)CCCCCC(=O)OC(CCC/C=C\CC)CCC/C=C\CC)COC(=O)OCCCN1CCCC1 [Compound (30), 1-[3-({7-Oxo-7-[(3Z,12Z)-pentadeca-3,12-dien-8-yloxy]heptanoyl}oxy)-2-[({[3-(pyrrolidin-1-yl)propoxy]carbonyl}oxy)methyl]propyl] 7-(3Z,12Z)-pentadeca-3,12-dien-8-yl heptanedioate]",1.53,–
–,–,–,–,–,–,–,–,–,103.5,93.42,"CC/C=C\CCCC(CCC/C=C\CC)OC(=O)CCCCCC(=O)OCC(COC(=O)CCCCCC(=O)OC(CCC/C=C\CC)CCC/C=C\CC)COC(=O)NCCN1CCN(C)CC1 [Compound (31), 01-[2-[[7-[(Z)-1-[(Z)-hept-4-enyl]oct-5-enoxy]-7-oxo-heptanoyl]oxymethyl]-3-[2-(4-methylpiperazin-1-yl)ethylcarbamoyloxy]propyl] O7-[(Z)-1-[(Z)-hept-4-enyl]oct-5-enyl] heptanedioate]",0.02,–
–,–,–,–,–,–,–,–,–,81.94,87.5,"CC/C=C\CCCC(CCC/C=C\CC)OC(=O)CCCCCC(=O)OCC(COC(=O)CCCCCC(=O)OC(CCC/C=C\CC)CCC/C=C\CC)COC(=O)NCCCn1ccnc1 [Compound (32), 1-{2-[({[3-(1H-imidazol-1-yl)propyl]carbamoyl}oxy)methyl]-3-({7-oxo-7-[(3Z,12Z)-pentadeca-3,12-dien-8-yloxy]heptanoyl}oxy)propyl} 7-(3Z,12Z)-pentadeca-3,12-dien-8-yl heptanedioate]",0.06,–
98.3,0.10,133.71,–,–,–,179.7,75.69,23.4,–,–,"C=CCCCC(CCCC=C)OC(=O)CCCCC(=O)OCC(COC(=O)CCCCC(=O)OC(CCCC=C)CCCC=C)COC(=O)CCCN1CCCC1 [Compound (33), 1-[2-({[6-Oxo-6-(undeca-1,10-dien-6-yloxy)hexanoyl]oxy}methyl)-3-{[4-(pyrrolidin-1-yl)butanoyl]oxy}propyl] 6-undeca-1,10-dien-6-yl hexanedioate]",–,"Quadrecept Editing A->G (%) ([3]; dose 3 MPK IV, formulation ratio 50:38.5:1.5:10, quadricep muscle): 0.1%"

SMILES,AVG EE(%) [1] [%],AVG PDI [1],AVG Z Dia (nm) [1] [nm],"Diameter (nm) [2, 5]","EE (%) [2, 5]","PDI (%) [2, 5]","Diameter (nm) [2, 6] [nm]","EE (%) [2, 6] [%]","PDI (%) [2, 6] [%]","Diameter (nm) [2, 9] [nm]","EE (%) [2, 9] [%]",Liver Editing A->G (%) [4] [%],further results
"CCCCCCCC(CCCCCCC)OC(=O)CCCCCC(=O)OCC(COC(=O)CCCCCC(=O)OC(CCCCCCC)CCCCCCC)COC(=O)CCCN1CCCC1 [Compound (21), O1-[2-[[7-(1-heptyloctoxy)-7-oxo-heptanoyl]oxymethyl]-3-(4-pyrrolidin-1-ylbutanoyloxy)propyl] O7-(1-heptyloctyl) heptanedioate]",95.1,0.13,75.95,62.08 nm,98.19%,6%,–,–,–,–,–,–,"Liver Editing A->G (%) ([3]; dose 0.05 MPK IV, formulation ratio 47.5:40:2.5:10, liver): 0.5%"
